Laboratory results reported in patent publication US9295722B2, “Bacterial glycolipid activation of CD1d-restricted NKT cells” (priority 2005, dated 2016).

Columns and labels:
Type in all cases: cell-based
[1] = test system: mouse NKT cells; assay: mouse CD1d tetramer-sorted NKT cells co-cultured with bone marrow derived DC, IFN-γ ELISA; conditions: co-cultured with CD1+/− or CD1−/− DC; 48 hrs
Description: (§1) Bacterial strains Sphingomonas capsulata (ATCC 14666) and Salmonella typhimurium R71 were grown in Mueller-Hinton Agar. Ehrlichia muris were prepared as described by Ismail N et al., J. Immunol. 172, 1786-1800 (2004), incorporated herein by reference. Bacteria were heat killed by 2-hour exposure to 74° C. and 2.5-5×10^6 cfu equivalent/well were used for in vitro stimulation.
Stimulation assays were performed with whole spleen cells (5×10^5 per 200 μl well) or with purified T cells and antigen presenting cells. […]
(§2) NKT cells were stimulated with heat-killed bacteria as indicated above for 48 hrs in 96 well round bottom plates in RPMI 1640 (Biofluids) supplemented with glutamine, antibiotics, 5×10^−5 M 2-ME and 10% FCS (mouse studies) or 5% AB serum (human studies). Concentrations of mouse and human IFN-γ. in the supernatant were measured at 48 hours using the respective ELISA kits (BD Bioscience, lower detection limit of 12.5 pg/ml).
Whole spleen cells co-cultured with DC of genotype MyD88^−/−, Trif^lps2/lps2 and MyD88^−/−Trif^lps2/lps2 (lacking one or the two adaptors MyD88 and TRIF for TLR signaling) or CD1^−/− were stimulated for 48 hours with 5×10^6 heat killed Salmonella, Sphingomonas or Ehrlichia. Concentrations of mouse and human IFN-γ. in the supernatant were measured at 48 hours using the respective ELISA kits (BD Bioscience, lower detection limit of 12.5 pg/ml).

[2] = test system: human NKT cells; assay: human NKT cells co-cultured with PBMC-derived DC, IFN-γ ELISA; conditions: blocking with 1 μg/mL anti-CD1d antibodies or control IgG1
Description: as §1
Stimulation assays were performed with whole spleen cells (5×10^5 per 200 μl well) or with purified T cells and antigen presenting cells. T cell populations used in the assays comprised sorted CD1d-Gal-Cer+ mouse spleen cells (5×10^4 per 200 μl well), human peripheral blood lymphocytes (PBL) (5×10^5 per 200 μl well) (obtained after Ficoll centrifugation of heparinized blood) or human NKT cell lines (2.5×10^5 per 200 μl well). […]
as §2

[3] = test system: mouse NKT cells; assay: fresh purified mouse NKT cells co-cultured with DC pulsed with synthetic glycolipid; conditions: for IFN-γ secretion: DC pulsed with 0.001 to 1000 ng/mL glycolipid, 48 hours
Description: (§3) Stimulation assays were performed with whole spleen cells (5×10^5 per 200 μl well) or with purified T cells and antigen presenting cells. T cell populations used in the assays comprised sorted CD1d-Gal-Cer+ mouse spleen cells (5×10^4 per 200 μl well), human peripheral blood lymphocytes (PBL) (5×10^5 per 200 μl well) (obtained after Ficoll centrifugation of heparinized blood) or human NKT cell lines (2.5×10^5 per 200 μl well). Human Vα24 NKT cells were derived from PBL stimulated with αGal-Cer and were maintained by repeated rounds of stimulation with PHA and IL-2 in the presence of irradiated PBMC and EBV transformed B cells in vitro. Antigen presenting cells were dendritic cells that were derived from bone marrow, stimulated with GMCSF/IL-4 (2 ng/mL and 5 ng/mL, Biosource) and cultured at 2.5×10^5 per 200 μl well for mouse assays, and irradiated allogeneic human PBMC fresh or cultured for 5 days with recombinant human GMCSF/IL-4, ([…] of each cytokine, R&D Systems) (2×10^5 per 200 μl well) for human assays. Cells were washed twice and starved for 6 hours in medium alone before addition to the stimulation experiments.
as §2
(§4) The immunological properties of the above compounds in NKT cells were measured. Human Vα24-Jα18 NKT cells and fresh purified mouse NKT cells were co-cultured with DC pulsed with αGal-Cer or synthetic glycolipid at concentrations ranging from 0.001 to 1000 ng/mL. IFN-γ production was measured at 48 hours as described above.

[4] = test system: NKT cells; assay: activation of NKT cells in vitro by synthetic glycolipids
Text: Activation of NKT cells may be measured in vitro or ex vivo by any suitable method. An example of an in vitro test permitting evaluation of NKT cell activation is co-culturing NKT cells with antigen presenting cells (APC), such as dendritic cells (DC), in the presence of a bacterial glycolipid activator or putative activator, and subsequently assaying for IFN-γ or other secreted cytokines in the supernatant. Alternatively, activation of NKT cells can be measured ex vivo by administering a bacterial glycolipid antigen to a subject or by administering CD1d^+ antigen presenting cells after ex vivo contact with bacterial glycolipids to a subject. The NKT cells from these subjects can be isolated by, e.g., CD1d-tetramer staining and gating via flow cytometry, and subsequently assayed for surface CD69 (early T-cell activation antigen) and/or intracellular IFN-γ by suitable methods.
Some representative examples of suitable bacterial glycolipids for complexing with CD1d molecules and activating NKT cells are depicted in FIG. 5. […] The remaining compounds depicted in FIG. 5 were rationally designed based on the following features determined to be common among glycolipids capable of activating NKT cells: 1) an alpha-type glycosidic linkage and 2) oxidation at the 6-position on the carbohydrate moiety of the glycolipid.

[5] = test system: human Vα24-Jα18 NKT cells; assay: human Vα24-Jα18 NKT cells co-cultured with DC pulsed with synthetic glycolipid; conditions: for IFN-γ secretion: DC pulsed with 0.001 to 1000 ng/mL glycolipid, 48 hours
Description: as §3, §2, §4

[6] = test system: human NKT cells; assay: CD1d-glycolipid tetramer staining of human NKT cells
Description: (§5) At 6 days post stimulation, CD1d-αGal-Cer, CFSE and αB220 (BD Pharmingen) labeling and staining procedures were performed and cells were analyzed by FACS. To generate CD1d-αGal-Cer tetramers, a mixture of 5 μl of αGal-Cer (from 1 mg/ml stock solution in DMSO), 10 μl of PBS 0.5% Tween 20, 10 μl of biotinylated CD1d (1 mg/ml), and 75 μl of PBS was incubated at 37° C. for 1 hr, and lipid-loaded CD1d was purified by centrifugation dialysis and complexed with streptavidin-APC. (Benlagha K. et al., J. Exp. Med. 191, 1895-1903 (2000).) Cells were analyzed on a FACSCalibur (BD Biosciences) with CellQuest software.
(§6) CD1d tetramers were prepared as described in Example 1 using synthetic glycolipids PBS 30, PBS 59 and PBS 50 and αGal-Cer, and were used to stain human NKT cells and mouse spleen cells.

[7] = test system: mouse NKT cells; assay: CD1d-glycolipid tetramer staining of mouse spleen cells
Description: as §5, §6

Molecule | IFN-γ secretion by mouse NKT cells [1] | IFN-γ secretion by human NKT cells [2] | NKT cell proliferation [3] | IFN-γ secretion [3] | activation of NKT cells [4] | NKT cell proliferation [5] | IFN-γ secretion [5] | human NKT cells stained by CD1d-glycolipid tetramers [6] | mouse NKT cells stained by CD1d-glycolipid tetramers [7] [%]
CCCCCCCCCCCCCCCCCCCCCCCCCC(=O)N[C@@H](CO[C@H]1O[C@H](CO)[C@H](O)[C@H](O)[C@H]1O)[C@H](O)[C@H](O)CCCCCCCCCCCCCC [αGal-Cer, α-galactosylceramide] | secreted IFN-γ in a CD1d-dependent manner | CD1d-dependent IFN-γ secretion |  |  |  |  |  |  | 
β-glucuronosylceramide [PBS 50, reference compound] |  |  | did not | did not | do not activate NKT cells | did not | did not |  | 
α-galacturonosylceramide [PBS 59] |  |  | strongly activated | strongly activated | found to activate NKT cells | strongly activated | strongly activated |  | 
α-glucuronosylceramide [PBS 30] |  |  | strongly activated | strongly activated | found to activate NKT cells | strongly activated | strongly activated | all | ~25
